The source of these data is patent publication US10961235B2, “Crystalline form of masitinib” (Sandoz AG, priority 2017, dated 2021).

The conditions of data set [1]: cited from earlier work; for hygroscopicity (in words): as described in prior filings.
The conditions of data set [2]: cited from earlier work.
The conditions of data set [3]: GMS, 15 to 80% RH, form A comparison (same range as FIG. 6 of WO2017/016512A1); cited from earlier work.
Data set [4] in a line: Gravimetric moisture sorption (GMS) of crystalline forms of masitinib mesylate. The class given is physicochemical. The procedure: Gravimetric moisture sorption/desorption (GMSD) isotherms were recorded with an SPSx-1μ moisture sorption analyzer (ProUmid, Ulm). The measurement cycle was started at ambient relative humidity (RH) of 25%. Relative humidity was then decreased to 5% RH in 5% steps, followed by a further decrease to 3% RH and to 0% RH. Afterwards RH was increased from 0% to 80% RH in a sorption cycle in 5% steps.
The time per step was set to a minimum of 2 hours and a maximum of 6 hours. If an equilibrium condition with a constant mass of ±0.01% within 1 hour was reached before the maximum time for all examined samples the sequential humidity step was applied before the maximum time of 6 hours. If no equilibrium was achieved the consecutive humidity step was applied after the maximum time of 6 hours. The temperature was 25±0.1° C.

Data set [5] can be described thus: Storage stability of crystalline form M, polymorphic conversion checked by XRPD. It is filed as physicochemical. Particulars: for conversion to crystal form I by XRPD / storage stability: 8 weeks at 40° C./75% relative humidity. On the procedure: X-Ray powder diffraction (XRPD) was performed with a PANalytical X'Pert PRO diffractometer equipped with a theta/theta coupled goniometer in transmission geometry, Cu—Kα1,2 radiation (wavelength 0.15419 nm) with a focusing mirror and a solid state PIXcel detector. Diffractograms were recorded at a tube voltage of 45 kV and a tube current of 40 mA, applying a stepsize of 0.013° 2-Theta with 40 s per step (255 channels) in the angular range of 2° to 40° 2-Theta at ambient conditions.

The nature of the next data set: Bulk density. The class given is physicochemical.

Like-named read-outs stand apart in the source and are kept apart here.

As for `CS(=O)(=O)O.Cc1ccc(NC(=O)c2ccc(CN3CCN(C)CC3)cc2)cc1Nc1nc(-c2cccnc2)cs1` [form H, salt of masitinib with methane sulfonic acid], the “hygroscopicity (in words)” value in data set [1] is listed as “low hygroscopicity”.

Regarding masitinib mesylate [DRX2], the “temperatures at which problems with polymorphic conversion occur” value in data set [2] (response to the eESR / EP2886543 A1, DRX2 to DRX1 upon heating) is “above 25 °C”.

With masitinib mesylate [crystal form I], the “water uptake in the range from 0% RH to 80% RH” value in data set [1] (0% RH to 80% RH, described for DRX I) is recorded as 4.3 w-%. Further, the “behaviour at 80% relative humidity” value in data set [1] (80% RH, WO 2008/098949 A2) was “remains dry”. For the same molecule, the “hygroscopicity (in words)” value in data set [1] (listed as DRX1) is recorded as “mildly hygroscopic”. In addition, the “weight increase between 0% RH and 80% RH” value in data set [1] (response to the eESR, EP 11170200.7) is given as 4.3 weight-%. Besides, the “temperatures at which thermodynamically stable” value in data set [2] (WO 2008/098949 A2) was “below 200 °C”.

masitinib mesylate [form A]: in data set [3], the “Mass change (water uptake) in the range of from 15-80% RH” value is listed as 4.0-6.0 w-%. The “hygroscopicity (in words)” value in data set [1] (listed as crystal form A) is recorded as “remarkably reduced compared to DRX1”. In addition, in data set [1] (moisture sorption/desorption curves, FIG. 6 of WO2017/016512A1), the “reversible loss of water below 10% RH” value is “about 5 weight-%”.

masitinib mesylate [form M]: the “hygroscopicity compared with form A” value in data set [4] was “less hygroscopic than form A”. Moreover, in data set [4] (GMS, 15 to 80% RH, 25±0.1° C., form M, listed as Crystalline form M), the “Mass change (water uptake / weight gain) in the range of from 15-80% RH” value is listed as 0.5-1.3 w-%. Moreover, in data set [4] (range of 15% RH and 80% RH), the “dependence of water content on relative humidity” value is reported as “relatively constant water content”. Also, the “conversion to crystal form I by XRPD after storage” value in data set [5] (8 weeks at 30° C./60% relative humidity) is listed as “did not convert to or show detectable traces of crystal form I”. Moreover, the “conversion to crystal form I by XRPD / storage stability” value in data set [5] (listed as crystal form M) was “storage stable”; in data set [5] (listed as crystalline form M) it was “did not convert to or show detectable traces of crystal form I”. For the same molecule, the “time remaining stable as crystalline form M” value in data set [5] (30° C. and 65% relative humidity) is given as “at least 8 weeks”; in data set [5] (40° C. and 75% relative humidity), “at least 8 weeks”. Further, the “polymorphic conversion on storage” value in data set [5] (at or below 40° C., relative humidity 15% RH to 75% RH) is recorded as “does not result in polymorphic conversion”. Further, the bulk density in “Bulk density” came to 0.14 g/mL.
